Literature values in patent US10206884B2, “Microcapsules with polymeric coating comprising a lipid and an active agent” (FRESENIUS KABI DEUTSCHLAND GMBH, priority 2013, dated 2019).

CCCC(=O)OCC(COC(=O)CCC)OC(=O)CCC [tributyrin, 1,3-di(butanoyloxy)propan-2-yl butanoate]
solubility in water: only poorly soluble in water
